The results in this text go back to patent US20260184663A1, “INDENE COMPOUNDS, PHARMACEUTICAL COMPOSITIONS THEREOF, AND THEIR THERAPEUTIC APPLICATIONS” (NucMito Pharmaceuticals co. Ltd., priority 2022, published 2026).

Some results are limits rather than exact numbers.

Holding throughout (type): cell-based
One experiment has as its system SW480 (colon cancer). Nature of the experiment: Antiproliferative activity (CCK-8 cell viability), SW480. The following applies: Homo sapiens, 72 h; for inhibition at 3.3 µM: Compound concentration: 3.3 μM; for inhibition at 3.3 µM / inhibition at 10 µM: read-out: Antiproliferative activity in cancerous cells, SW480 (inhibition of cell growth); for inhibition at 10 µM: Compound concentration: 10 μM; for inhibition at 30 µM: Compound concentration: 30 μM, read-out: Antiproliferative activity in cancerous cells, SW480. As to the method:
(§1) The antiproliferative activity of a compound was determined in the following cell lines: MDA-MB-231 (breast cancer), HepG2 (liver cancer), SW480 (colon cancer), B16F10 (malignant melanoma), A431 (epidermoid carcinoma), A549 (lung adenocarcinoma), and HeLa (cervical cancer). MDA-MB-231, HepG2, SW480, B16F10, and A431 cells were cultured in Dulbecco's modified Eagle's medium (DMEM) containing 10% fetal bovine serum (FBS). HeLa cells were cultured in MEM/EBSS (MEM) containing 10% FBS. A549 cells were maintained in Kaighn's modification of Ham's F-12 medium containing 10% FBS. A Cell Counting Kit-8 (CCK-8) was used to measure the cell viability of different cells following treatment with the compound.
(§2) Briefly cells were seeded in a 96-well plate at a density of 2,000-5,000 cells/well. Following attachment, the cells were treated with the compound in media at a compound concentration of 3.3 μM, 10 μM, or 30 μM. After the cells were incubated at 37° C. for 72 h, a CCK-8 solution (10 μL) was added to each well. After incubation at 37° C. for 4 h, the absorbance value of each well was determined using a multi-well plate reader at 450 nm. The wells treated with DMSO were taken as a vehicle control. Data were also obtained similarly for all the replicates and the percentage of cell viability was determined with respect to the DMSO-treated cells. The results are summarized in Tables 2-4, wherein A represents no less than […] of cell growth; B represents no less than 30% but less than 50% inhibition of cell growth; and C represents less than 30% inhibition of cell growth.

Experiment [1] deals with A431 (epidermoid carcinoma). Briefly: Antiproliferative activity (CCK-8 cell viability), A431. The following applies: Homo sapiens, 72 h; for inhibition at 3.3 µM: A-431, Compound concentration: 3.3 μM; for inhibition at 3.3 µM / inhibition at 10 µM: read-out: Antiproliferative activity in cancerous cells, A431 (inhibition of cell growth); for inhibition at 10 µM: A-431, Compound concentration: 10 μM; for inhibition at 30 µM: A-431, Compound concentration: 30 μM, read-out: Antiproliferative activity in cancerous cells, A431. The protocol: as §1, §2

Experiment [2] concerns MDA-MB-231 (breast cancer). Nature of the experiment: Antiproliferative activity (CCK-8 cell viability), MDA-MB-231. The following applies: Homo sapiens, 72 h; for inhibition at 3.3 µM: Compound concentration: 3.3 μM; for inhibition at 3.3 µM / inhibition at 10 µM: read-out: Antiproliferative activity in cancerous cells, MDA-MB-231 (inhibition of cell growth); for inhibition at 10 µM: Compound concentration: 10 μM. The protocol: as §1, §2

Experiment [3] has as its system B16F10 (malignant melanoma). Nature of the experiment: Antiproliferative activity (CCK-8 cell viability), B16F10. The following applies: Mus musculus, 72 h, read-out: Antiproliferative activity in cancerous cells, B16F10 (inhibition of cell growth); for inhibition at 3.3 µM: B16-F10, Compound concentration: 3.3 μM; for inhibition at 10 µM: B16-F10, Compound concentration: 10 μM. As to the method: as §1, §2

Another experiment relates to HeLa (cervical cancer). Briefly: Antiproliferative activity (CCK-8 cell viability), HeLa. The following applies: Homo sapiens, 72 h, read-out: Antiproliferative activity in cancerous cells, HELA (inhibition of cell growth); for inhibition at 3.3 µM: Compound concentration: 3.3 μM; for inhibition at 10 µM: Compound concentration: 10 μM. As to the method:
as §1, §2

The next experiment concerns HepG2 (liver cancer). Nature of the experiment: Antiproliferative activity (CCK-8 cell viability), HepG2. The following applies: Homo sapiens, 72 h; for inhibition at 3.3 µM: Compound concentration: 3.3 μM; for inhibition at 3.3 µM / inhibition at 10 µM: read-out: Antiproliferative activity in cancerous cells, HepG2 (inhibition of cell growth); for inhibition at 10 µM: Compound concentration: 10 μM. As to the method:
as §1, §2

For experiment [4], the system named is A549 (lung adenocarcinoma). Nature of the experiment: Antiproliferative activity (CCK-8 cell viability), A549. The following applies: Homo sapiens, 72 h; for inhibition at 3.3 µM: Compound concentration: 3.3 μM; for inhibition at 3.3 µM / inhibition at 10 µM: read-out: Antiproliferative activity in cancerous cells, A549 (inhibition of cell growth); for inhibition at 10 µM: Compound concentration: 10 μM; for inhibition at 30 µM: Compound concentration: 30 μM, read-out: Antiproliferative activity in cancerous cells, A549. As to the method: as §1, §2

Turning to `O=C(O)CC1=C(Cc2ccc(Oc3ccc(F)cc3)cc2)/C(=C/c2ccc(Oc3ccc(F)cc3)cc2)c2ccc(F)cc21` [A107, (Z)-2-(5-Fluoro-2-(4-(4-fluorophenoxy)benzyl)-1-(4-(4-fluorophenoxy)-benzylidene)-1H-inden-3-yl)acetic acid], the inhibition at 3.3 µM (in the experiment on SW480 (colon cancer); in experiment [1]; in experiment [2]; in experiment [3]; in the experiment on HeLa (cervical cancer); in the experiment on HepG2 (liver cancer)) was at least 50% each time. Besides, the inhibition at 3.3 µM in experiment [4] was at least 50%. Further, the inhibition at 10 µM (in the experiment on SW480 (colon cancer); in experiment [1]; in experiment [2]; in experiment [3]; with HeLa (cervical cancer); in the experiment with HepG2 (liver cancer)) was at least 50% each time. In experiment [4], the inhibition at 10 µM is at least 50%.
As to `O=C(O)CC1=C(Cc2ccc(Oc3ccc(F)cc3)cc2)/C(=C/c2ccc(Cc3ccc(F)cc3)cc2)c2ccc(F)cc21` [A112, (Z)-2-(5-Fluoro-1-(4-(4-fluorobenzyl)benzylidene)-2-(4-(4-fluorophenoxy)-benzyl)-1H-inden-3-yl)acetic acid], the inhibition at 3.3 µM in the experiment on SW480 (colon cancer) was at least 50%; in experiment [1], at least 50%; in experiment [2] it was at least 50%; in experiment [3], 30 to 50%; with HeLa (cervical cancer) it was at least 50%; in the experiment on HepG2 (liver cancer) it was 30 to 50%. For the same compound, the inhibition at 3.3 µM in experiment [4] is at least 50%. The inhibition at 10 µM (in the experiment on SW480 (colon cancer); in experiment [1]; in experiment [2]; in experiment [3]; with HeLa (cervical cancer); in the experiment with HepG2 (liver cancer)) was at least 50% each time. The inhibition at 10 µM in experiment [4] is at least 50%.
For the compound `CC1=C(CC(O)CO)c2ccccc2/C1=C\c1ccc(Oc2ccc(F)cc2)cc1` (stereo not shown) [A203, (Z)-3-(1-(4-(4-Fluorophenoxy)benzylidene)-2-methyl-1H-inden-3-yl)propane-1,2-diol], the inhibition at 3.3 µM in the experiment on SW480 (colon cancer) is under 30%; in experiment [1] it was 30 to 50%; in experiment [2], under 30%; in experiment [3] it was under 30%; in the experiment with HeLa (cervical cancer), under 30%; in the experiment on HepG2 (liver cancer) it was under 30%. The inhibition at 3.3 µM in experiment [4] is under 30%. For the same compound, the inhibition at 10 µM is 30 to 50% in the experiment with SW480 (colon cancer); at least 50% in experiment [1]; at least 50% in experiment [2]; at least 50% in experiment [3]; at least 50% in the experiment with HeLa (cervical cancer); under 30% in the experiment with HepG2 (liver cancer). For the same compound, in experiment [4], the inhibition at 10 µM was at least 50%.
For the compound `CC1=C(CCOC(=O)n2ccnc2)c2cc(F)ccc2/C1=C\c1ccc(Oc2ccc(F)cc2)cc1` [A204, (Z)-2-(5-Fluoro-1-(4-(4-fluorophenoxy)benzylidene)-2-methyl-1H-inden-3-yl)ethyl 1H-imidazole-1-carboxylate], the inhibition at 3.3 µM (in the experiment on SW480 (colon cancer); in experiment [1]; in experiment [2]; in experiment [3]; with HeLa (cervical cancer); with HepG2 (liver cancer)) was under 30% each time. In experiment [4], the inhibition at 3.3 µM was under 30%. In addition, the inhibition at 10 µM (in the experiment on SW480 (colon cancer); in experiment [1]; in experiment [2]; in experiment [3]; in the experiment on HeLa (cervical cancer); in the experiment on HepG2 (liver cancer)) was under 30% each time. Besides, the inhibition at 10 µM in experiment [4] was under 30%. Moreover, the inhibition at 30 µM in the experiment on SW480 (colon cancer) was 30 to 50%; in experiment [1], under 30%; in experiment [2] (Compound concentration: 30 μM, read-out: Antiproliferative activity in cancerous cells, MDA-MB-231) it was 30 to 50%; with HepG2 (liver cancer) (Compound concentration: 30 μM, read-out: Antiproliferative activity in cancerous cells, HepG2) it was under 30%; in experiment [4], 30 to 50%.
Turning to `CC1=C(CCOC(=O)N(C)N)c2cc(F)ccc2/C1=C\c1ccc(Oc2ccc(F)cc2)cc1` [A205, (Z)-2-(5-Fluoro-1-(4-(4-fluorophenoxy)benzylidene)-2-methyl-1H-inden-3-yl)ethyl 1-methylhydrazine-1-carboxylate], the inhibition at 3.3 µM in the experiment with SW480 (colon cancer) is under 30%; in experiment [1], under 30%; in experiment [2], under 30%; in experiment [3], under 30%; with HeLa (cervical cancer) it was 30 to 50%; with HepG2 (liver cancer) it was 30 to 50%. Further, in experiment [4], the inhibition at 3.3 µM was under 30%. Also, the inhibition at 10 µM is under 30% in the experiment with SW480 (colon cancer); under 30% in experiment [1]; at least 50% in experiment [2]; under 30% in experiment [3]; at least 50% in the experiment with HeLa (cervical cancer); at least 50% with HepG2 (liver cancer). In experiment [4], the inhibition at 10 µM was under 30%. For the same compound, the inhibition at 30 µM (in the experiment on SW480 (colon cancer); in experiment [1]; in experiment [4]) was 30 to 50% each time.
Consider `CC1=C(CC(=O)O)c2cc(F)ccc2/C1=C\c1cccc(CNc2ccccc2)c1` [B14, (Z)-2-(5-Fluoro-2-methyl-1-(3-((phenylamino)methyl)benzylidene)-1H-inden-3-yl)acetic acid], for which the inhibition at 3.3 µM was under 30% with SW480 (colon cancer); under 30% in experiment [1]; under 30% in experiment [2]; under 30% in experiment [3]; 30 to 50% with HeLa (cervical cancer); under 30% with HepG2 (liver cancer). Also, the inhibition at 3.3 µM in experiment [4] was at least 50%. Moreover, the inhibition at 10 µM in the experiment on SW480 (colon cancer) is under 30%; in experiment [1], under 30%; in experiment [2] it was 30 to 50%; in experiment [3], 30 to 50%; in the experiment on HeLa (cervical cancer), 30 to 50%; in the experiment with HepG2 (liver cancer), under 30%. In addition, in experiment [4], the inhibition at 10 µM is at least 50%. The inhibition at 30 µM (in the experiment on SW480 (colon cancer); in experiment [1]; in experiment [4]) was 30 to 50% in each case.
As for `CC1=C(CC(=O)O)c2cc(F)ccc2/C1=C\c1ccc(CN(CCc2ccccc2)c2ccccc2)cc1` [B19, (Z)-2-(5-Fluoro-2-methyl-1-(4-((phenethyl(phenyl)amino)methyl)benzylidene)-1H-inden-3-yl)acetic acid], the inhibition at 3.3 µM with SW480 (colon cancer) was 30 to 50%; in experiment [1], under 30%; in experiment [2], at least 50%; in experiment [3] it was under 30%; in the experiment with HeLa (cervical cancer), 30 to 50%; in the experiment with HepG2 (liver cancer) it was under 30%. Also, the inhibition at 3.3 µM in experiment [4] is at least 50%. The inhibition at 10 µM (with SW480 (colon cancer); in experiment [1]; in experiment [2]; in experiment [3]; in the experiment with HeLa (cervical cancer); with HepG2 (liver cancer)) was at least 50% in each case. For the same compound, in experiment [4], the inhibition at 10 µM is at least 50%.
